Data reported in PubChem BioAssay (NCI).
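These data come from cells grown in 96-well plates and exposed to compound for 48 hours at five concentrations. GI50 = concentration required for 50% inhibition of growth. Definition used: TGI = concentration required for complete inhibition of growth.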

Columns and labels:
Assay in all cases: NCI anticancer screen, dose series, 48 h
[1] = test system: SF-539 CNS
[2] = test system: BT-549 breast
[3] = test system: MALME-3M melanoma
[4] = test system: OVCAR-8 ovarian
[5] = test system: LOX IMVI melanoma
[6] = test system: SNB-19 CNS
[7] = test system: UACC-257 melanoma
[8] = test system: KM12 colon
[9] = test system: RXF 393 renal
[10] = test system: TK-10 renal

SMILES | TGI [1] [µM] | TGI [2] [µM] | TGI [3] [µM] | TGI [4] [µM] | TGI [5] [µM] | TGI [6] [µM] | TGI [7] [µM] | TGI [8] [µM] | TGI [9] [µM] | TGI [10] [µM] | GI50 [1] [µM] | GI50 [5] [µM] | GI50 [7] [µM] | GI50 [10] [µM] | GI50 [2] [µM] | GI50 [3] [µM] | GI50 [6] [µM] | GI50 [8] [µM] | GI50 [9] [µM]
COc1ccc(CC2COc3cc(OC)cc(OC)c3C2=O)cc1 (stereo unspecified) | 37.3 | > 100 | 75.3 | 83.3 | > 100 | > 100 | > 100 | > 100 | > 100 | 82.3 | – | – | – | – | – | – | – | – | –
CC1=C2C(O)C(C(C)C(=O)N(C)C)CCC2(C)C=CC1=O (stereo unspecified) | > 100 | – | – | > 100 | > 100 | > 100 | > 100 | > 100 | > 100 | – | – | – | – | – | – | – | – | – | –
CN(C)/C=C/C(=CC=[N+](C)C)/C=C/N(C)C | > 100 | – | > 100 | > 100 | > 100 | > 100 | > 100 | > 100 | > 100 | > 100 | – | – | – | – | – | – | – | – | –
CCC1C[N+]23CCc4c([nH]c5ccccc45)C2CC1CC3 (stereo unspecified) | – | – | 97.4 | > 100 | > 100 | – | > 100 | > 100 | > 100 | > 100 | – | – | – | – | – | – | – | – | –
O=C1C=C(C2OC(CO)C(O)C2O)C(=O)N1 (stereo unspecified) | > 100 | – | > 100 | > 100 | > 100 | > 100 | > 100 | > 100 | > 100 | – | – | – | – | – | – | – | – | – | –
Cc1n(CC(C)C)c2c([n+]1C)C(=O)c1ccccc1C2=O | 0.532 | 0.61 | 0.28 | 0.937 | 0.867 | 0.647 | 0.156 | 1.6 | 6.19 | 3.38 | – | – | – | – | – | – | – | – | –
Cc1ccc2c(ccc(/C=C/c3ccc(O)c4ncccc34)[n+]2C)c1 | 23.1 | > 29 | 31.4 | 24 | 30.2 | 36.9 | 24.2 | 33.3 | 37.8 | 38.9 | – | – | – | – | – | – | – | – | –
N#C[S-].[La+3].c1cnc2c(c1)ccc1cccnc12.c1cnc2c(c1)ccc1cccnc12.c1cnc2c(c1)ccc1cccnc12 | 14.1 | – | 7.06 | 11.5 | 13.3 | 20.9 | 20.2 | 22.6 | – | 25.4 | – | – | – | – | – | – | – | – | –
CCOC(=O)Nc1cc2c(c(N)n1)N=C(c1ccc(OC)cc1)CN2 | – | 80.5 | – | > 100 | 3.15 | 0.659 | 36.5 | > 100 | – | 90.1 | < 0.0001 | 0.0144 | 12.9 | 0.837 | – | – | – | – | –
Cc1ccc(S(=O)(=O)Nc2cccc3c(=O)[nH]cnc23)cc1 | > 100 | – | > 100 | > 100 | > 100 | > 100 | > 100 | > 100 | > 100 | > 100 | – | – | – | – | – | – | – | – | –
CCOP(=Nc1ccc(N(C)C)cc1)(OCC)OCC | – | > 100 | > 100 | > 100 | – | > 100 | > 100 | > 100 | > 100 | > 100 | – | – | – | – | – | – | – | – | –
CC(=O)C(C(c1ccccc1)N1CCOCC1)N1CCOCC1 (stereo unspecified) | > 100 | > 100 | > 100 | > 100 | > 100 | > 100 | 38.9 | > 100 | > 100 | 53.7 | – | – | – | – | – | – | – | – | –
CC1(C)[C@@H]2CC[C@]1(C)[C@H](OC(=O)CSC#N)C2 | 67.9 | > 100 | > 100 | > 100 | > 100 | > 100 | > 100 | > 100 | > 100 | > 100 | – | – | – | – | – | – | – | – | –
O=S(=O)(O)c1ccc(N=Nc2ccc3c(S(=O)(=O)O)cccc3c2O)c2ccccc12 | – | > 100 | > 100 | > 100 | > 100 | > 100 | > 100 | > 100 | > 100 | > 100 | – | – | – | – | – | – | – | – | –
Cc1cccc(Cl)c1NCC(O)CN1CCN(C)CC1 (stereo unspecified) | – | > 100 | > 100 | > 100 | > 100 | > 100 | > 100 | > 100 | > 100 | > 100 | – | – | – | – | – | – | – | – | –
COC1OC(CS(=O)(=O)O)C(O)C(O)C1O (stereo unspecified) | – | > 100 | > 100 | > 100 | > 100 | > 100 | > 100 | > 100 | > 100 | > 100 | – | – | – | – | – | – | – | – | –
C=C1C(=O)OC2/C=C(\C(=O)O)CC/C=C(\C)CC(OC(=O)/C=C(\C)CC)C12 (stereo unspecified) | 29.9 | – | 32.7 | 33.9 | 29.3 | 33.5 | 39.9 | 27.9 | 27.5 | > 100 | – | – | – | – | – | – | – | – | –
COc1cc2c(cc1O)c(O)cc1c3cc(OC)c(OC)cc3c[n+](C)c21 | > 100 | > 100 | > 100 | > 79 | > 55.2 | > 100 | > 100 | > 100 | > 100 | > 100 | – | – | – | – | – | – | – | – | –
CCCC(C)c1ccc(OCCCCCCN2CCNCC2)cc1 (stereo unspecified) | 3.46 | 12.4 | 3.75 | – | – | 13.6 | 4.72 | 3.85 | 3 | 3.47 | 1.71 | – | 2.05 | 1.8 | 3.08 | 1.93 | 3.2 | 1.87 | 1.55
CN(C)CCNC(=O)c1cccc2c(=O)c3ccccc3oc12 | > 100 | – | 64.3 | > 83.5 | 43.4 | 97.7 | 74.4 | > 100 | > 100 | – | – | – | – | – | – | – | – | – | –
O=C(c1ccccc1)c1ccc2n[se]nc2c1 | 43 | – | > 100 | > 100 | > 100 | > 100 | > 100 | > 100 | > 100 | > 100 | – | – | – | – | – | – | – | – | –
